Test results from patent publication US8563542B2 (Cyclacel Limited, priority 2007, dated 2013).

Key:
PLK1 = PLK1 (Homo sapiens, UniProt P53350); assay: PLK1 protein kinase assay (CDC25C phosphorylation, [γ-32P]-ATP); format: biochemical; settings: Table 2, PLK1 IC50; class symbols; read-out: PLK1 IC50
AA = target: T1, AA (Homo sapiens, UniProt O14965); assay: AA IC50 (Table 1; no method given); format: biochemical; settings: Table 2, AurA IC50; class symbols; read-out: AurA IC50
T1 sequence (O14965 1-403): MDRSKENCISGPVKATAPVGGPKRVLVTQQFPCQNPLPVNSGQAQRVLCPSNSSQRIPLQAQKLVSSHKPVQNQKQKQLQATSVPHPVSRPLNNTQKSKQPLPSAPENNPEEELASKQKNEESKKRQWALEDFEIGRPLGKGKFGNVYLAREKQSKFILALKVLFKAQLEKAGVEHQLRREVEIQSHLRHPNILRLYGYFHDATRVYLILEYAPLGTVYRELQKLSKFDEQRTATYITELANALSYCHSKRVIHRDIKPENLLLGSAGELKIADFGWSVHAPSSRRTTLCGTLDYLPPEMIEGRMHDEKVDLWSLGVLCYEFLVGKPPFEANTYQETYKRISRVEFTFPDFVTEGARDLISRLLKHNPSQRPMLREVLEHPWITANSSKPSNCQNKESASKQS

Sequence of PLK1 (P53350 whole entry): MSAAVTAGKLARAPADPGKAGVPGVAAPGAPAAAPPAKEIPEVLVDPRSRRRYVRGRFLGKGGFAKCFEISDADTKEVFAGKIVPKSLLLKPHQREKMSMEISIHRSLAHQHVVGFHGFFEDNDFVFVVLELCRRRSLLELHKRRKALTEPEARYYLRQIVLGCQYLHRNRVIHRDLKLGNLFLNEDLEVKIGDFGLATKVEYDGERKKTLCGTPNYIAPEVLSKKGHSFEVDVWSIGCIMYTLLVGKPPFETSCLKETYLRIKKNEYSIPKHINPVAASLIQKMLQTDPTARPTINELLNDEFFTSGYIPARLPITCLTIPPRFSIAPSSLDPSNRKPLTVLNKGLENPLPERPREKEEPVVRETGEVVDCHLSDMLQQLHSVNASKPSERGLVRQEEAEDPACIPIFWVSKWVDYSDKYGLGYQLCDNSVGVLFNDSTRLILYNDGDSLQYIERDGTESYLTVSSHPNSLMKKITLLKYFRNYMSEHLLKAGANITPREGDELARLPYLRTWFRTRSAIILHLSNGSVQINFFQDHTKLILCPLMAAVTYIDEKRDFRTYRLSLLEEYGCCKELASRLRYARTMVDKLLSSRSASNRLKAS

| Structure (SMILES) | IC50 (PLK1) [nM] | IC50 (AA) [nM] |
| --- | --- | --- |
| CN1CCC(NS(=O)(=O)c2cccc(Nc3ncc4c(n3)N(C3CCCC3)CCC(=O)N4C)c2)CC1 [compound 103, 3-(9-Cyclopentyl-5-methyl-6-oxo-6,7,8,9-tetrahydro-5H-pyrimido[4,5-b][1,4]diazepin-2-ylamino)-N-(1-methyl-piperidin-4-yl)-benzenesulfonamide] | < 10000 | < 1000 |
| CN1C(=O)CCN(C2CCCC2)c2nc(Nc3cccc(S(=O)(=O)NCc4ccccc4)c3)ncc21 [compound 110, N-Benzyl-3-(9-cyclopentyl-5-methyl-6-oxo-6,7,8,9-tetrahydro-5H-pyrimido[4,5-b][1,4]diazepin-2-ylamino)-benzenesulfonamide] | < 10000 | < 1000 |
| CC(C)N1CCC(=O)N(C)c2cnc(Nc3ccc4c(c3)CS(=O)(=O)C4)nc21 [compound 115, 2-(2,2-Dioxo-2,3-dihydro-1H-2lambda*6*- benzo[c]thiophen-5-ylamino)-9-isopropyl-5-methyl-5,7,8,9-tetrahydro-pyrimido[4,5-b][1,4]diazepin-6-one] | < 10000 | < 100 |
| C=CCN1CCC(=O)N(C)c2cnc(Nc3ccc4c(c3)CS(=O)(=O)C4)nc21 [compound 119, 9-Allyl-2-(2,2-dioxo-2,3-dihydro-1H-2lambda*6*-benzo[c]thiophen-5-ylamino)-5-methyl-5,7,8,9-tetrahydro-pyrimido[4,5-b][1,4]diazepin-6-one] | < 10000 | < 100 |
| CN1C(=O)CCN(C2CCCC2)c2nc(NCc3ccco3)ncc21 [compound 124, 9-Cyclopentyl-2-[(furan-2-ylmethyl)-amino]-5-methyl-5,7,8,9-tetrahydro-pyrimido[4,5-b][1,4]diazepin-6-one] | < 10000 | < 10000 |
| CN1C(=O)CCN(C2CCCC2)c2nc(Nc3ccc4cc[nH]c4c3)ncc21 [compound 130, 9-Cyclopentyl-2-(1H-indo1-6-ylamino)-5-methyl-5,7,8,9-tetrahydro-pyrimido[4,5-b][1,4]diazepin-6-one] | < 10000 | < 1000 |
| CN1C(=O)CCN(C2CCCC2)c2nc(NCc3ccc(-c4csnn4)cc3)ncc21 [compound 132, 9-Cyclopentyl-5-methyl-2-(4-[1,2,3]thiadiazol-4-yl-benzylamino)-5,7,8,9-tetrahydro-pyrimido[4,5-b][1,4]diazepin-6-one] | < 10000 | < 10000 |
| Cc1cccc(Nc2ncc3c(n2)N(C2CCCC2)CCC(=O)N3C)c1 [compound 137, 9-Cyclopentyl-5-methyl-2-m-tolylamino-5,7,8,9-tetrahydro-pyrimido[4,5-b][1,4]diazepin-6-one] | < 10000 | < 100 |
| COc1cccc(Nc2ncc3c(n2)N(C2CCCC2)CCC(=O)N3C)c1 [compound 138, 9-Cyclopentyl-2-(3-methoxy-phenylamino)-5-methyl-5,7.8,9-tetrahydro-pyrimido[4,5-b][1,4]diazepin-6-one] | < 10000 | < 1000 |
| Cc1c(Nc2ncc3c(n2)N(C2CCCC2)CCC(=O)N3C)cccc1C(=O)NC1CCN(C)CC1 [compound 140, 3-(9-Cyclopentyl-5-methyl-6-oxo-6,7,8,9-tetrahydro-5H-pyrimido[4,5-b][1,4]diazepin-2-ylamino)-2-methyl-N-(1-methyl-piperidin-4-yl)-benzamide] | < 10000 | < 10000 |
| CN1C(=O)CCN(C2CCCC2)c2nc(Nc3cccc(S(=O)(=O)N4CCNCC4)c3)ncc21 [compound 146] | < 10000 | < 10000 |
| CN1C(=O)CCN(C2CCCC2)c2nc(Nc3ccc(CCC(=O)O)cc3)ncc21 [compound 170, 3-[4-(9-Cyclopentyl-5-methyl-6-oxo-6,7,8,9-tetrahydro-5H-pyrimido[4,5-b][1,4]diazepin-2-ylamino)-phenyl]-propionic acid] | < 10000 | < 100 |
| CC(=O)Nc1ccc(Nc2ncc3c(n2)N(C2CCCC2)CCC(=O)N3C)cc1 [compound 171, N-[4-(9-Cyclopentyl-5-methyl-6-oxo-6,7,8,9-tetrahydro-5H-pyrimido[4,5-b][1,4]diazepin-2-ylamino)-phenyl]-acetamide] | < 10000 | < 100 |
| CN1C(=O)CCN(C2CCCC2)c2nc(Nc3ccc(CC(=O)O)cc3)ncc21 [compound 172, [4-(9-Cyclopentyl-5-methyl-6-oxo-6,7,8,9-tetrahydro-5H-pyrimido[4,5-b][1,4]diazepin-2-ylamino)-phenyl]-acetic acid] | < 10000 | < 100 |
| CN1C(=O)CCN(C2CCCC2)c2nc(Nc3ccc4c(c3)CC(=O)N4)ncc21 [compound 173, 9-Cyclopentyl-5-methyl-2-(2-oxo-2,3-dihydro-1H-indo1-5-ylamino)-5,7,8,9-tetrahydro-pyrimido[4,5-b][1,4]diazepin-6-one] | < 10000 | < 100 |

Next, values leading:

| IC50 (PLK1) [nM] | IC50 (AA) [nM] | Structure (SMILES) |
| --- | --- | --- |
| < 10000 | < 100 | CC(=O)N(C)S(=O)(=O)c1ccc(Nc2ncc3c(n2)N(C2CCCC2)CCC(=O)N3C)cc1 [compound 97, N-Acetyl-4-(9-cyclopentyl-5-methyl-6-oxo-6,7,8,9-tetrahydro-5H-pyrimido[4,5-b][1,4]diazepin-2-ylamino)-N-methyl-benzenesulfonamide] |
| < 10000 | < 100 | COCCNS(=O)(=O)c1ccc(Nc2ncc3c(n2)N(C2CCCC2)CCC(=O)N3C)cc1 [compound 104, 4-(9-Cyclopentyl-5-methyl-6-oxo-6,7,8,9-tetrahydro-5H-pyrimido[4,5-b][1,4]diazepin-2-ylamino)-N-(2-methoxy-ethyl)-benzenesulfonamide] |
| < 10000 | < 1000 | COCCNS(=O)(=O)c1cccc(Nc2ncc3c(n2)N(C2CCCC2)CCC(=O)N3C)c1 [compound 108, 3-(9-Cyclopentyl-5-methyl-6-oxo-6,7,8,9-tetrahydro-5H-pyrimido[4,5-b][1,4]diazepin-2-ylamino)-N-(2-methoxy-ethyl)-benzenesulfonamide] |
| < 1000 | < 1000 | CN1C(=O)CCN(C2CCCC2)c2nc(Nc3cccc(S(=O)(=O)N4CCCC4)c3)ncc21 [compound 109, 9-Cyclopentyl-5-methyl-2-[3-(pyrrolidine-1-sulfonyl)-phenylamino]-5,7,8,9-tetrahydro-pyrimido[4,5-b][1,4]diazepin-6-one] |
| < 1000 | < 1000 | CN1C(=O)C2(CCC2)CN(C2CCCC2)c2nc(Nc3ccc4c(c3)CS(=O)(=O)C4)ncc21 [compound 117, (9-Cyclopentyl-2-(2,2-dioxo-2,3-dihydro-1H-2lambda*6*-benzo[c]thiophen-5-ylamino)5-methyl-6-oxo-6,7,8,9-tetrahydro-5H-spiro[pyrimido[4,5-b][1,4]diazepin-3,1′-cyclobutane+] |
| < 1000 | < 1000 | CN1C(=O)CCN(C2CCCC2)c2nc(Nc3ccc(Cl)cc3)ncc21 [compound 123, 2-(4-Chloro-phenylamino)-9-cyclopentyl-5-methyl-5,7,8,9-tetrahydro-pyrimido[4,5-b][1,4]diazepin-6-one] |
| < 1000 | < 100 | Cc1cc2cc(Nc3ncc4c(n3)N(C3CCCC3)CCC(=O)N4C)ccc2[nH]1 [compound 125, 9-Cyclopentyl-5-methyl-2-(2-methyl-1H-indol-5-ylamino)-5,7,8,9-tetrahydro-pyrimido[4,5-b][1,4]diazepin-6-one] |
| < 1000 | < 10000 | CN1C(=O)CCN(C2CCCC2)c2nc(NCc3cccc4c3OCCO4)ncc21 [compound 128, 9-Cyclopentyl-2-[(2,3-dihydro-benzo[1,4]dioxin-5-ylmethyl)-amino]-5-methyl-5,7,8,9-tetrahydro-pyrimido[4,5-b][1,4]diazepin-6-one] |
| < 1000 | < 100 | CN1C(=O)CCN(C2CCCC2)c2nc(Nc3ccc4[nH]ncc4c3)ncc21 [compound 139, 9-Cyclopentyl-2-(1H-indazol-5-ylamino)-5-methyl-5,7,8,9-tetrahydro-pyrimido[4,5-b][1,4]diazepin-6-one] |
| < 1000 | < 10000 | COc1cc(C(=O)NCCCCO)ccc1Nc1ncc2c(n1)N(C1CCCC1)CCC(=O)N2C [compound 151, 4-(9-Cyclopentyl-5-methyl-6-oxo-6,7,8,9-tetrahydro-5H-pyrimido[4,5-b][1,4]diazepin-2-ylamino)-N-(4-hydroxy-butyl)-3-methoxy-benzamide] |
| < 1000 | < 10000 | Cc1cc(C(=O)O)ccc1Nc1ncc2c(n1)N(C1CCCC1)CCC(=O)N2C [compound 174, 4-(9-Cyclopentyl-5-methyl-6-oxo-6,7,8,9-tetrahydro-5H-pyrimido[4,5-b][1,4]diazepin-2-ylamino)-3-methyl-benzoic acid] |
| < 1000 | < 100 | CN1C(=O)CCN(C2CCCC2)c2nc(Nc3ccc(C(=O)NC4CC4)cc3)ncc21 [compound 176, 4-(9-Cyclopentyl-5-methyl-6-oxo-6,7,8,9-tetrahydro-5H-pyrimido[4,5-b][1,4]diazepin-2-ylamino)-N-cyclopropyl-benzamide] |
| < 1000 | < 100 | CN1C(=O)CCN(C2CCCC2)c2nc(Nc3cccc(CN4CCS(=O)(=O)CC4)c3)ncc21 [compound 177, 9-Cyclopentyl-2-[3-(1,1-dioxo-thiomorpholin-4-ylmethyl)-phenylamino]-5-methyl-5,7,8,9-tetrahydro-pyrimido[4,5-b][1,4]diazepin-6-one] |
